This is an account of results in patent US4493843A, “Indole and indoline carboxylic acid compounds and method of use” (May & Baker Limited, priority 1980, dated 1985).

Structures are written as SMILES. Counter-ions that a name gives are not always drawn. Like-named read-outs stand apart in the source and are kept apart here.

In this experiment the test system is serum cholesterol and serum triglycerides. The experiment in a line: Hypolipidaemic activity in rats (compound in diet, last 7 of 10 days). Type of experiment: in vivo, Male Wistar rats. The settings on record: 7 days; for change in vivo at 0.2 % strength / change in vivo at 0.03 % strength / change in vivo at 0.1 % strength: Rattus norvegicus, po, 168 h; for change in vivo at 0.03 % strength: 0.03 % w/w dose in diet; for change in vivo at 0.1 % strength: 0.1 % w/w dose in diet. The protocol: Hypolipidaemic Activity in Rats
Male Wistar rats each weighing between 120 and 150 g were caged in groups of eight and fed a powdered diet for 10 days. For the last 7 days of that period the test compound was administered orally by mixing the compound in the diet and allowing the animals to feed normally. Food consumption was measured on day 9 for each group.
At noon on day 10 the animals were killed by inhalation of carbon dioxide from solid carbon dioxide. A sample of blood was removed by cardiac puncture and the serum cholesterol and serum triglycerides were analysed by means of an autoanalyser.
Control groups (receiving only the normal, unmedicated diet) were included with each test.
The percentage reductions in the concentrations of serum cholesterol and serum triglycerides were calculated by comparison with the simultaneous controls, for each concentration of the test compound used.

The mark [1] stands for this setting: 0.2 % w/w dose in diet, read-out: % change in serum cholesterol compared with control.
Setting [2] is: 0.2 % w/w dose in diet, read-out: % change in serum triglycerides compared with control.
Where [3] appears, read: read-out: % change in serum cholesterol compared with control.
Where [4] appears, read: read-out: % change in serum triglycerides compared with control.

For `CCCCCCCc1cc2ccc(C(=O)OCCCC)cc2[nH]1` [Compound AKK, n-butyl 2-(n-heptyl)indole-6-carboxylate], the change in vivo at 0.2 % strength under setting [1] was -3% and the change in vivo at 0.2 % strength under setting [2] is -10%.

On to `CCCCCCCCCCCC1Cc2cc(C(=O)O)ccc2N1` (racemic) [Compound YY, (RS)-2-(n-undecyl)indoline-5-carboxylic acid], for which the change in vivo at 0.03 % strength was -25% under setting [3] and -51% under setting [4]. Further, the change in vivo at 0.1 % strength under setting [3] was -21% and the change in vivo at 0.1 % strength under setting [4] was -65%. The change in vivo at 0.2 % strength by setting is: under setting [1], -32%; under setting [2], -64%.

Turning to `CCCCCCCCCCCc1cc2cc(C(=O)O)ccc2[nH]1` [Compound F, 2-(n-undecyl)indole-5-carboxylic acid], the change in vivo at 0.1 % strength by setting is: under setting [3], -18%; under setting [4], -43%. Besides, the change in vivo at 0.2 % strength under setting [1] is -37% and the change in vivo at 0.2 % strength under setting [2] is -73%.

For the compound `CCCCCCCCCCCCCCCCCC1Cc2cc(C(=O)O)ccc2N1` (racemic) [Compound ADD, (RS)-2-(n-heptadecyl)indoline-5-carboxylic acid], the change in vivo at 0.2 % strength runs as follows: under setting [1], -6%; under setting [2], -40%.

Turning to `CCCCCCCCCCCCCCCCc1c[nH]c2ccc(C(=O)OC)cc12` [Compound BCC, methyl 3-(n-hexadecyl)indole-5-carboxylate], the change in vivo at 0.2 % strength is, setting by setting: under setting [1], 2%; under setting [2], 16%.

Consider `CCCCCCCCCCCC1Cc2cc(C(=O)O)ccc2N1C` (racemic) [Compound BJJ, (RS)-1-methyl-2-(n-undecyl)indoline-5-carboxylic acid], for which the change in vivo at 0.2 % strength runs as follows: under setting [1], -15%; under setting [2], -41%.

For the compound `CCCCCCCc1cc2cc(C(=O)OCCCC)ccc2[nH]1` [Compound ARR, n-butyl 2-(n-heptyl)indole-5-carboxylate], the change in vivo at 0.2 % strength came out at 8% under setting [1] and 20% under setting [2].

Turning to `CCCCCCCCc1c[nH]c2ccc(C(=O)O)cc12` [Compound BTT, 3-(n-octyl)indole-5-carboxylic acid], the change in vivo at 0.2 % strength reads like this: under setting [1], 0%; under setting [2], 15%.

In the case of `CCCCCCCCCCCCCc1cc2cc(C(=O)O)ccc2[nH]1` [Compound H, 2-(n-tridecyl)indole-5-carboxylic acid], the change in vivo at 0.1 % strength by setting is: under setting [3], -15%; under setting [4], -26%. For the same compound, the change in vivo at 0.2 % strength reads like this: under setting [1], -48%; under setting [2], -68%.

Consider `CCCCCCCCCCC1Cc2ccc(C(=O)O)cc2N1` (racemic) [Compound ZZ, (RS)-2-(n-decyl)indoline-6-carboxylic acid], for which the change in vivo at 0.2 % strength reads like this: under setting [1], -32%; under setting [2], -77%.

In the case of `CCCCCCCCCCCCCCCc1cc2c(C(=O)OCC)cccc2[nH]1` [Compound EE, ethyl 2-(n-pentadecyl)indole-4-carboxylate], the change in vivo at 0.2 % strength is -5% under setting [1] and -2% under setting [2].

`CCCCCCCCCCCCc1cc2ccc(C(=O)OCC)cc2[nH]1` [Compound CC, ethyl 2-(n-dodecyl)indole-6-carboxylate]: the change in vivo at 0.2 % strength is -17% under setting [1] and -57% under setting [2].

In the case of `CCCCCCCC1Cc2ccc(C(=O)O)cc2N1` (racemic) [Compound AEE, (RS)-2-(n-heptyl)indoline-6-carboxylic acid], the change in vivo at 0.2 % strength by setting is: under setting [1], -22%; under setting [2], -37%.

In the case of `CCCCCCCCCCCCCCCCCCCc1cc2cc(C(=O)O)ccc2[nH]1` [Compound PP, 2-(n-nonadecyl)indole-5-carboxylic acid], the change in vivo at 0.2 % strength was -13% under setting [1] and -41% under setting [2].

Regarding `CCCCCCCCCCCc1cc2ccc(C(=O)O)cc2[nH]1` [C sodium salt], under “0.2 % w/w dose in diet, oral”, the “% change in serum cholesterol compared with control” value is recorded as -41% and the “% change in serum triglycerides compared with control” value is listed as -46%.

Turning to `CCCCCCCCCC(C)c1cc2cc(C(=O)O)ccc2[nH]1` (racemic) [Compound RR, (RS)-2-(1-methyldecyl)indole-5-carboxylic acid], the change in vivo at 0.2 % strength under setting [1] is -7% and the change in vivo at 0.2 % strength under setting [2] is -88%.

With `CCCCCCCCCCCCCCCC1Cc2cc(C(=O)O)ccc2N1` (racemic) [Compound AAA, (RS)-2-(n-pentadecyl)indoline-5-carboxylic acid], the change in vivo at 0.2 % strength by setting is: under setting [1], -12%; under setting [2], -55%.

With `CCCCCCCCc1cc2cc(C(=O)O)ccc2[nH]1` [Compound X, 2-(n-octyl)indole-5-carboxylic acid], the change in vivo at 0.2 % strength under setting [1] was -18% and the change in vivo at 0.2 % strength under setting [2] is -25%.

Take `CCCCCCCC1Cc2cc(C(=O)O)ccc2N1` (racemic) [Compound ABB, (RS)-2-(n-heptyl)indoline-5-carboxylic acid]: the change in vivo at 0.2 % strength runs as follows: under setting [1], -18%; under setting [2], -34%.

Take `CCCCCCCCCCCCCCCCc1cc2cc(C(=O)O)ccc2[nH]1` [Compound OO, 2-(n-hexadecyl)indole-5-carboxylic acid]: the change in vivo at 0.2 % strength is -52% under setting [1] and -75% under setting [2].

Turning to `CCCCCCCCCCCCCCCc1cc2cc(C(=O)OCC)ccc2[nH]1` [Compound BB, ethyl 2-(n-pentadecyl)indole-5-carboxylate], the change in vivo at 0.2 % strength runs as follows: under setting [1], -19%; under setting [2], -39%.

In the case of `CCCCCCCCC1CNc2cc(C(=O)OC)ccc21` (racemic) [Compound CEE, (RS)-methyl 3-(n-octyl)indoline-6-carboxylate], the change in vivo at 0.2 % strength is -16% under setting [1] and -16% under setting [2].

On to `CCCCCCCCCCCc1cc2cc(C(=O)OC)ccc2[nH]1` [Compound ATT, methyl 2-(n-undecyl)indole-5-carboxylate], for which the change in vivo at 0.2 % strength was -16% under setting [1] and -70% under setting [2].

Regarding `CCCCCCCCCCCCCCCCCCC1CNc2ccc(C(=O)O)cc21` (racemic) [Compound BOO, (RS)-3-(n-octadecyl)indoline-5-carboxylic acid], the change in vivo at 0.2 % strength by setting is: under setting [1], 3%; under setting [2], 9%.

With `CCCCCCCc1cc2cc(C(=O)O)ccc2[nH]1` [Compound Q, 2-(n-heptyl)indole-5-carboxylic acid], the change in vivo at 0.2 % strength by setting is: under setting [1], -10%; under setting [2], -14%.

With `CCCCCCCCCCCc1cc2c(C(=O)O)cccc2[nH]1` [Compound W, 2-(n-undecyl)indole-4-carboxylic acid], the change in vivo at 0.2 % strength by setting is: under setting [1], -3%; under setting [2], 22%.

For `CCCCCCCCCCCCc1cc2cc(C(=O)O)ccc2[nH]1` [Compound Y, 2-(n-dodecyl)indole-5-carboxylic acid], the change in vivo at 0.1 % strength by setting is: under setting [3], -20%; under setting [4], -51%. Besides, the change in vivo at 0.2 % strength is, setting by setting: under setting [1], -30%; under setting [2], -80%.

With `CCCCCCCCCCCCCCCc1cc2cc(C(=O)OC)ccc2[nH]1` [Compound LL, methyl 2-(n-pentadecyl)indole-5-carboxylate], the change in vivo at 0.1 % strength reads like this: under setting [3], -13%; under setting [4], -32%. The change in vivo at 0.2 % strength is, setting by setting: under setting [1], -16%; under setting [2], -22%.

`CCCCCCCCCCCCCc1cc2ccc(C(=O)OCC)cc2[nH]1` [Compound AMM, ethyl 2-(n-tridecyl)indole-6-carboxylate]: the change in vivo at 0.2 % strength by setting is: under setting [1], -4%; under setting [2], -12%.

With `CCCCCCCc1cc2ccc(C(=O)OC)cc2[nH]1` [Compound AII, methyl 2-(n-heptyl)indole-6-carboxylate], the change in vivo at 0.2 % strength reads like this: under setting [1], 7%; under setting [2], 20%.

With `CCCCCCCCCCCCCCCc1cc2ccc(C(=O)OC)cc2[nH]1` [Compound ANN, methyl 2-(n-pentadecyl)indole-6-carboxylate], the change in vivo at 0.2 % strength is, setting by setting: under setting [1], 1%; under setting [2], -25%.

With `CCCCCCCCCc1cc2c(C(=O)O)cccc2[nH]1` [Compound Z, 2-(n-nonyl)indole-4-carboxylic acid], the change in vivo at 0.2 % strength under setting [1] is -14% and the change in vivo at 0.2 % strength under setting [2] was -14%.

For `CCCCCCCCCCCCCCCCCCCCc1cc2ccc(C(=O)OCCCC)cc2[nH]1` [Compound AQQ, n-butyl 2-(n-eicosyl)indole-6-carboxylate], the change in vivo at 0.2 % strength by setting is: under setting [1], 6%; under setting [2], -12%.

In the case of `CCCCCCCCCCCCCCCCc1c[nH]c2ccc(C(=O)O)cc12` [Compound BHH, 3-(n-hexadecyl)indole-5-carboxylic acid], the change in vivo at 0.2 % strength reads like this: under setting [1], -6%; under setting [2], -10%.

As for `CCCCCCCCc1c[nH]c2cc(C(=O)O)ccc12` [Compound BEE, 3-(n-octyl)indole-6-carboxylic acid], the change in vivo at 0.2 % strength is, setting by setting: under setting [1], -19%; under setting [2], -18%.
